Laboratory results from publication PMC6272155, “Plasmin Regulation through Allosteric, Sulfated, Small Molecules” (Molecules, 2015).
Entries after “also recorded” stand apart in the source; their conditions may differ. Like-named read-outs stand apart in the source and are kept apart here.

Key:
Type in all cases: biochemical
human Lys-plasmin = molecular target: T1, human Lys-plasmin (Homo sapiens, UniProt P00747); test: Direct inhibition of human Lys-plasmin, chromogenic substrate (Spectrozyme PL) hydrolysis assay; conditions: for inhibition at 400 µM: 400 μM inhibitor, n ≥ 2, read-out: plasmin inhibition in initial screening; for IC50: human plasmin 20 nM, 50 mM Tris-HCl pH 7.4, 150 mM NaCl, 37 °C, Spectrozyme PL; for diminished potency relative to 32: 13-atom and 14-atom linkers vs 12-atom linker of 32; for decrease in inhibition potency relative to 31 and 32, respectively: tetrasulfated flavonoid replaced by para-sulfated quinazolinone
T1 construct: purchased Haematologic Technologies (Essex Junction, VT, USA)
T1 sequence (P00747 581-810 limits assumed): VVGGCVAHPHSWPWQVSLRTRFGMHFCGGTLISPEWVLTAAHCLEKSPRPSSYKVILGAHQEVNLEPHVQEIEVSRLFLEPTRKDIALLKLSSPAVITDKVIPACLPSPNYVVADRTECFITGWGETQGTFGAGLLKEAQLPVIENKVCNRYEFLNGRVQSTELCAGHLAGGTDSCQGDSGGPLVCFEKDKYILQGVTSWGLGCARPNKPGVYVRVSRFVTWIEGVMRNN
T1 sequence (P00747 97-580 partner limits assumed): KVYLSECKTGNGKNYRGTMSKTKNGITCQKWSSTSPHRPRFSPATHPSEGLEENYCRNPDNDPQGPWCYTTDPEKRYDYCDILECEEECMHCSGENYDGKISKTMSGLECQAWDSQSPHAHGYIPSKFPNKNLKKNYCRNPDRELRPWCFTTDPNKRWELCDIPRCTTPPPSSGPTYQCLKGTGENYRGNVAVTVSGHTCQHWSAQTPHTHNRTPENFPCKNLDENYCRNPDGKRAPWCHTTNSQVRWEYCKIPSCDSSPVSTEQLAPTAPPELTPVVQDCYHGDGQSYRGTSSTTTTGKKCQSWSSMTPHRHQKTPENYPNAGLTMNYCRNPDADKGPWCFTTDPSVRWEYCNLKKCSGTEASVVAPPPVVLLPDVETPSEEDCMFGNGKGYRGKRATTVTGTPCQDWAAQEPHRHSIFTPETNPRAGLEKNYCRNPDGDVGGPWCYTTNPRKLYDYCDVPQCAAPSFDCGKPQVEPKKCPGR
Description: Important to emphasize here that the potency of NSGM-based inhibitors was evaluated by measuring their IC50's (X-axis), whereas the efficacy was assessed by measuring the overall change in residual plasmin activity (%) (ΔY = YM − Y0) (Y-axis).
Direct inhibition of human Lys-plasmin was measured using a chromogenic substrate hydrolysis assay on a microplate reader (FlexStation III, Molecular Devices, Sunnyvale, CA, USA), as reported earlier. Briefly, to each well of a 96-well microplate containing 85 µL of 50 mM Tris-HCl buffer, pH 7.4, containing 150 mM NaCl, 0.1% PEG8000, and 0.02% Tween80 at 37 °C was added 5 µL potential NSGM-based inhibitor (20–100 mM aqueous solution) (or vehicle alone) and 5 µL enzyme. The final concentration of the enzyme was 20 nM. After 5 min incubation, 5 µL of 1 mM Spectrozyme PL was rapidly added and the residual enzyme activity was measured from the initial rate of increase in A405. Relative residual enzyme activity (Y) as a function of the concentration of sulfated molecule was fitted using logistic equation 1 to obtain the potency (IC50), efficacy (ΔY) and Hill slope (HS) of inhibition. In this equation, YM and Y0 are the maximal and minimal values of Y: (1) Y = Y0+YM−Y0/1+10^(log[Inhibitor]0 − logIC50) ×HS […]
In this equation, Y is the ratio of residual plasmin activity in the presence of inhibitor to that in its absence (fractional residual activity). YM and Y0 are the maximum and minimum possible values of the fractional residual proteinase activity. The difference between these two values is used to evaluate the inhibitor’s efficacy to reduce the residual enzyme activity under the assay condition.
Direct inhibition of human plasmin by sulfated small molecules. Direct inhibition of plasmin was measured using a chromogenic substrate hydrolysis assay on a microplate reader (FlexStation III, Molecular Devices), as reported earlier. Briefly, to each well of a 96-well microplate containing […]
Tween80 at 37 °C was added 5 µL potential inhibitor (or vehicle alone) and 5 µL enzyme. The final concentration of the enzyme was 20 nM. After 5 min incubation, 5 µL of 1 mM Spectrozyme PL was rapidly added and the residual enzyme activity was measured from the initial rate of increase in A405.
Relative residual enzyme activity (Y, activity in the presence of inhibitor to that in its absence) as a function of the concentration of SPGG derivative was fitted using logistic Equation (1) to obtain the potency (IC50), efficacy (ΔY) and Hill slope (HS) of inhibition. In this equation, YM and Y0 are the maximal and minimal values of Y.

thrombin = thrombin (Homo sapiens, UniProt P00734); test: Direct inhibition of thrombin, chromogenic substrate (Spectrozyme TH) hydrolysis assay; conditions: pH 7.4, 37 °C; read-out: IC50 against thrombin
Description: (§1) The rationale behind targeting an allosteric site on plasmin was to achieve inhibition specificity over the closely related serine proteases. In contrast to active sites, allosteric sites are not as highly conserved and therefore present a powerful opportunity for discovering a selective modulator of enzyme function. […] Using appropriate small peptide-based chromogenic substrates, the fractional residual thrombin and factor Xa activities were measured under the physiological condition of pH 7.4 and 37 °C.
(§2) Briefly, to each well of a 96-well microplate containing 185 μL of 20–50 mM Tris-HCl buffer, pH 7.4, containing 100–150 mM NaCl, 0.1% PEG8000 and 0.02% Tween80 at either 25 °C (thrombin) or 37 °C (factor Xa) was added 5 μL of 10–20 mM inhibitor (or vehicle) and 5 μL of the enzyme. The final concentrations of the enzymes were 6 nM (thrombin) and 1.09 nM (factor Xa). After 10 min incubation, 5 μL 1.0 mM Spectrozyme TH or 2.5 mM Spectrozyme FXa, was rapidly added and the residual enzyme activity was measured from the initial rate of increase in A405. Relative residual enzyme activity (Y, activity in the presence of inhibitor to that in its absence) as a function of the concentration of inhibitor was measured.

factor Xa = factor Xa (Homo sapiens, UniProt P00742); test: Direct inhibition of factor Xa, chromogenic substrate (Spectrozyme FXa) hydrolysis assay; conditions: for IC50: pH 7.4, 37 °C, read-out: IC50 against factor Xa
factor Xa, sequence (P00742 235-488 limits assumed): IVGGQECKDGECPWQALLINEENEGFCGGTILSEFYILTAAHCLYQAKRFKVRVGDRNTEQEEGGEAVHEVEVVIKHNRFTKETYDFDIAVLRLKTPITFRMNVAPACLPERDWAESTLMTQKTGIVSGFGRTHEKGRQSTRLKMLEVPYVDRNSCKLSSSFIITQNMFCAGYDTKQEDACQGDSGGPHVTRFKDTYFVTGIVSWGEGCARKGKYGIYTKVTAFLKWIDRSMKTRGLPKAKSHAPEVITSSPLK
factor Xa, sequence (P00742 41-179 partner limits assumed): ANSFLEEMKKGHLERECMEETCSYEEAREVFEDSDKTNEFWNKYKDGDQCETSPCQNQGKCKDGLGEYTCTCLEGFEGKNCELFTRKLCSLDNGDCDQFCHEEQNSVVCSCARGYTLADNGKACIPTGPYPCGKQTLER
Description: as §1, §2

human plasmin = molecular target: T2, human plasmin (Homo sapiens, UniProt P00747); test: Michaelis-Menten kinetics of Spectrozyme PL hydrolysis by human plasmin in presence of inhibitor
T2 construct: purchased Haematologic Technologies (Essex Junction, VT, USA)
T2 sequence (P00747 581-810 limits assumed): as the sequence (P00747 581-810 limits assumed) above
T2 sequence (P00747 97-580 partner limits assumed): as the sequence (P00747 97-580 partner limits assumed) above
Description: The initial rate of Spectrozyme PL hydrolysis by human plasmin (20 nM) was monitored from the linear increase in absorbance at 405 nm corresponding to less than 10% consumption of the substrate. […] The data were fitted by Michaelis-Menten Equation (2) to determine KM,app and VMAX: (2) V= VMAX [S]/KM+ [S] […]
Michaelis-Menten kinetics of Spectrozyme PL hydrolysis by plasmin in the presence of […]
The initial rate of Spectrozyme PL hydrolysis by human plasmin (20 nM) was monitored from the linear increase in absorbance at 405 nm corresponding to less than 10% consumption of the substrate. The initial rate was measured as a function of various concentrations of the substrate (0–400 μM) […]
50 mM Tris-HCl buffer, pH 7.4, 150 mM NaCl at 37 °C. The data were fitted by Michaelis-Menten Equation (2) to determine KM,app and VMAX. […]

[1] = pH 7.4, read-out: ΔY% (efficacy, YM − Y0), logistic fit, pH 7.4, 37 °C
[2] = pH 7.4, logistic fit, pH 7.4, 37 °C, read-out: ΔY% (efficacy, YM − Y0)
[3] = logistic fit, pH 7.4, 37 °C, read-out: ΔY% (efficacy, YM − Y0)

Row | IC50 (human Lys-plasmin) | HS (Hill slope) (human Lys-plasmin; logistic fit, pH 7.4, 37 °C) | Emax (human Lys-plasmin; [3]) | SMILES | other results
1 |  |  |  | O=S(=O)(O)OC[C@H]1O[C@@](COS(=O)(=O)O)(O[C@H]2O[C@H](COS(=O)(=O)O)[C@@H](OS(=O)(=O)O)[C@H](OS(=O)(=O)O)[C@H]2OS(=O)(=O)O)[C@@H](OS(=O)(=O)O)[C@@H]1OS(=O)(=O)O [compound 17, sucrose octasulfate, reference compound] | inhibition at 400 µM (human Lys-plasmin; pH 7.4, 37 °C): ≤ 70%
2 | 125 ± 9 µM | 4.0 ± 1.8 |  | O=c1c2ccccc2nc(-c2ccc(OS(=O)(=O)O)cc2)n1Cc1cn(CCn2cc(Cn3c(-c4ccc(OS(=O)(=O)O)cc4)nc4ccccc4c3=O)nn2)nn1 [compound 41] | ΔY% (efficacy, YM − Y0) (human Lys-plasmin; logistic fit, pH 7.4, 37 °C): 54 ± 5%; Emax (human Lys-plasmin; [2]): 54%
3 | 161 ± 24 µM | 1.0 ± 0.2 | 92 ± 4% | O=c1c2ccccc2nc(-c2ccc(OS(=O)(=O)O)cc2)n1CCCCCCCn1cc(Cn2c(-c3ccc(OS(=O)(=O)O)cc3)nc3ccccc3c2=O)nn1 [compound 42] | decrease in inhibition potency relative to 31 and 32, respectively (human Lys-plasmin): 3–4 fold
4 | 183 ± 43 µM | 1.0 ± 0.3 | 94 ± 21% | O=c1c2ccccc2nc(-c2ccc(OS(=O)(=O)O)cc2)n1CCCCCCCCn1cc(Cn2c(-c3ccc(OS(=O)(=O)O)cc3)nc3ccccc3c2=O)nn1 [compound 43] | decrease in inhibition potency relative to 31 and 32, respectively (human Lys-plasmin): 3–4 fold
5 | 137 ± 11 µM | 1.0 ± 0.2 | 102 ± 9% | O=c1c2ccccc2nc(-c2ccc(OS(=O)(=O)O)cc2)n1CCCCCCCCCn1cc(Cn2c(-c3ccc(OS(=O)(=O)O)cc3)nc3ccccc3c2=O)nn1 [compound 44] | 
6 | 98 ± 9 µM | 1.7 ± 0.6 | 94 ± 6% | O=c1c2ccccc2nc(-c2ccc(OS(=O)(=O)O)cc2)n1CCCCCCCCCCn1cc(Cn2c(-c3ccc(OS(=O)(=O)O)cc3)nc3ccccc3c2=O)nn1 [compound 45] | 
7 | 111 ± 7 µM | 2.4 ± 0.4 | 95 ± 2% | O=c1c2ccccc2nc(-c2ccc(OS(=O)(=O)O)cc2)n1CCCCCCCCCCCn1cc(Cn2c(-c3ccc(OS(=O)(=O)O)cc3)nc3ccccc3c2=O)nn1 [compound 46] | 
8 | 89 ± 7 µM | 1.9 ± 0.6 | 98 ± 7% | O=c1c2ccccc2nc(-c2ccc(OS(=O)(=O)O)cc2)n1CCCCCCCCCCCCn1cc(Cn2c(-c3ccc(OS(=O)(=O)O)cc3)nc3ccccc3c2=O)nn1 [compound 47] | 
9 | 185 ± 68 µM | 1.4 ± 0.2 |  | O=c1c(OS(=O)(=O)O)c(-c2ccc(OS(=O)(=O)O)c(OS(=O)(=O)O)c2)oc2cc(OS(=O)(=O)O)cc(OCCOc3cc(OS(=O)(=O)O)cc4oc(-c5ccc(OS(=O)(=O)O)c(OS(=O)(=O)O)c5)c(OS(=O)(=O)O)c(=O)c34)c12 [compound 50] | loss in potency relative to 4-atom linker flavonoid homodimers (52, 54) (human Lys-plasmin): 2 fold; inhibition at 400 µM (human Lys-plasmin; pH 7.4, 37 °C): > 90%; ΔY% (efficacy, YM − Y0) (human Lys-plasmin; logistic fit, pH 7.4, 37 °C): 38 ± 15%; Emax (human Lys-plasmin; [2]): 38%
10 | ~2830 µM |  |  | O=c1c(OS(=O)(=O)O)c(-c2ccc(OS(=O)(=O)O)c(OS(=O)(=O)O)c2)oc2cc(OS(=O)(=O)O)cc(OCCCOc3cc(OS(=O)(=O)O)cc4oc(-c5ccc(OS(=O)(=O)O)c(OS(=O)(=O)O)c5)c(OS(=O)(=O)O)c(=O)c34)c12 [compound 51] | loss in potency relative to 4-atom linker flavonoid homodimers (52, 54) (human Lys-plasmin): 37 fold
11 | 209 ± 25 µM | 0.6 ± 0.1 |  | O=c1c(OS(=O)(=O)O)c(-c2ccc(OS(=O)(=O)O)c(OS(=O)(=O)O)c2)oc2cc(OS(=O)(=O)O)cc(OCCCCCOc3cc(OS(=O)(=O)O)cc4oc(-c5ccc(OS(=O)(=O)O)c(OS(=O)(=O)O)c5)c(OS(=O)(=O)O)c(=O)c34)c12 [compound 53] | loss in potency relative to 4-atom linker flavonoid homodimers (52, 54) (human Lys-plasmin): 3 fold; inhibition at 400 µM (human Lys-plasmin; pH 7.4, 37 °C): > 90%; Emax (human Lys-plasmin; [2]): 105 ± 8%

Row | SMILES | IC50 (human Lys-plasmin) | HS (Hill slope) (human Lys-plasmin; logistic fit, pH 7.4, 37 °C) | Emax (human Lys-plasmin; [3]) | other results
12 | O=c1c(OS(=O)(=O)O)c(-c2ccc(OS(=O)(=O)O)c(OS(=O)(=O)O)c2)oc2cc(OS(=O)(=O)O)cc(OCc3cn(CCCCCCCn4c(-c5ccc(OS(=O)(=O)O)cc5)nc5ccccc5c4=O)nn3)c12 [compound 31, 3-(8-(4-((2-(3,4-O,O-Disulfonato-phenyl)-3,7-O,O-disulfonato-4-oxo-4H-chromen-5-yloxy)methyl)-1H-1,2,3-triazol-1-yl)heptyl)-2-(4-O-sulfonato-phenyl)quinazolin-4(3H)-one] | 56 ± 2 µM | 3.2 ± 0.8 |  | ΔY% (efficacy, YM − Y0) (human Lys-plasmin; logistic fit, pH 7.4, 37 °C): 87 ± 4%; Emax (human Lys-plasmin; [1]): 87%; IC50 (thrombin): > 500 µM; selectivity index for plasmin over factor Xa (factor Xa): about 5 fold; IC50 (factor Xa): > 250 µM
13 | O=c1c(OS(=O)(=O)O)c(-c2ccc(OS(=O)(=O)O)c(OS(=O)(=O)O)c2)oc2cc(OS(=O)(=O)O)cc(OCc3cn(CCCCCCCCn4c(-c5ccc(OS(=O)(=O)O)cc5)nc5ccccc5c4=O)nn3)c12 [compound 32, 3-(8-(4-((2-(3,4-O,O-Disulfonato-phenyl)-3,7-O,O-disulfonato-4-oxo-4H-chromen-5-yloxy)methyl)-1H-1,2,3-triazol-1-yl)octyl)-2-(4-O-sulfonato-phenyl)quinazolin-4(3H)-one] | 45 ± 2 µM | 2.3 ± 0.7 |  | Emax (human Lys-plasmin; [1]): 105%; mechanism of plasmin inhibition (human plasmin; Michaelis-Menten kinetics, pH 7.4, 37 °C): noncompetitive inhibition; also recorded: allosteric inhibitor; decrease in VMAX (human plasmin; inhibitor 0 to 250 μM): 5.5 fold; VMAX of Spectrozyme PL hydrolysis (human plasmin; inhibitor 1 μM): 65.8 ± 2.1 mAU/min; VMAX of Spectrozyme PL hydrolysis (human plasmin; inhibitor 10 μM): 56.4 ± 2.3 mAU/min; VMAX of Spectrozyme PL hydrolysis (human plasmin; inhibitor 50 μM): 41.4 ± 1.6 mAU/min; VMAX of Spectrozyme PL hydrolysis (human plasmin; inhibitor 150 μM): 20.7 ± 1.1 mAU/min; VMAX of Spectrozyme PL hydrolysis (human plasmin; inhibitor 250 μM): 12.5 ± 1.3 mAU/min; IC50 (thrombin): > 500 µM; selectivity index for plasmin over factor Xa (factor Xa): about 5 fold; IC50 (factor Xa): > 250 µM
14 | O=c1c(OS(=O)(=O)O)c(-c2ccc(OS(=O)(=O)O)c(OS(=O)(=O)O)c2)oc2cc(OS(=O)(=O)O)cc(OCc3cn(CCCCCCCCCn4c(-c5ccc(OS(=O)(=O)O)cc5)nc5ccccc5c4=O)nn3)c12 [compound 33] | 128 ± 8 µM | 1.8 ± 0.4 |  | diminished potency relative to 32 (human Lys-plasmin): ~ 3 fold; Emax (human Lys-plasmin; [1]): 89 ± 7%
15 | O=c1c(OS(=O)(=O)O)c(-c2ccc(OS(=O)(=O)O)c(OS(=O)(=O)O)c2)oc2cc(OS(=O)(=O)O)cc(OCc3cn(CCCCCCCCCCn4c(-c5ccc(OS(=O)(=O)O)cc5)nc5ccccc5c4=O)nn3)c12 [compound 34] | 130 ± 6 µM | 3.9 ± 1.0 |  | diminished potency relative to 32 (human Lys-plasmin): ~ 3 fold; Emax (human Lys-plasmin; [1]): 83 ± 5%
